In one assay the target is T1, GRK5 (Homo sapiens, UniProt P34947).
T1 construct: purchased Thermo Scientific
The assay is described as follows: Lance Kinase Activity Assay, GRK5. The conditions noted are these: biochemical Lance kinase activity assay; class symbols A-F; read-out: GRK5 LANCE Assay (IC-50). A digest of the protocol:
(§1)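 IC50s from sigmoidal dose-response over 0.0025-10 μM compound, with phosphorylated ULight substrate detected by Eu anti-phospho antibody FRET after EDTA quench.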
A general note: In TR-FRET formats the signal depends on donor and acceptor labels being close together.

In another assay the target is T2, GRK2 (Homo sapiens, UniProt P25098).
T2 construct: purchased Thermo Scientific
T2 sequence (P25098 1-689): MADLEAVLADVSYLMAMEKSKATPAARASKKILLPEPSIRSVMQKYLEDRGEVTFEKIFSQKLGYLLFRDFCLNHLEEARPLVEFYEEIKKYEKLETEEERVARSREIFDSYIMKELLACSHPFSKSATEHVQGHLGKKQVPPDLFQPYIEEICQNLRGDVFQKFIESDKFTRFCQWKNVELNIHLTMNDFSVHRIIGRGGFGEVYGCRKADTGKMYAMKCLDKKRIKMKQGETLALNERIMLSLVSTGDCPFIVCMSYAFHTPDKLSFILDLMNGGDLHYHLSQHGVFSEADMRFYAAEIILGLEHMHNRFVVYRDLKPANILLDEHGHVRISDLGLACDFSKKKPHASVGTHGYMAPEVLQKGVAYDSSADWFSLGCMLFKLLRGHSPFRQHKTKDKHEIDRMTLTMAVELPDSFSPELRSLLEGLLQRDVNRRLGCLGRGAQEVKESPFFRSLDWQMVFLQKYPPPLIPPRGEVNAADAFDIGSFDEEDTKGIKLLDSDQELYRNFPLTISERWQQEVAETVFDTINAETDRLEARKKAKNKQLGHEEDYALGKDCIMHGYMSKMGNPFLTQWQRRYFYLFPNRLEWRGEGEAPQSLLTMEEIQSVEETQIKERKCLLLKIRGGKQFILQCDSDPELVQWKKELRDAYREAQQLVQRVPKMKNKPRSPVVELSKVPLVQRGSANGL
The assay is described as follows: Lance Kinase Activity Assay, GRK2. The conditions noted are these: biochemical Lance kinase activity assay; class symbols A-F; read-out: GRK2 LANCE Assay (IC-50). A digest of the protocol: as §1

Our source for the IC50 values is patent US20240294522A1 (Lead Discovery Center GmbH, priority 2021, published 2024).

T1 sequence (P34947 whole entry): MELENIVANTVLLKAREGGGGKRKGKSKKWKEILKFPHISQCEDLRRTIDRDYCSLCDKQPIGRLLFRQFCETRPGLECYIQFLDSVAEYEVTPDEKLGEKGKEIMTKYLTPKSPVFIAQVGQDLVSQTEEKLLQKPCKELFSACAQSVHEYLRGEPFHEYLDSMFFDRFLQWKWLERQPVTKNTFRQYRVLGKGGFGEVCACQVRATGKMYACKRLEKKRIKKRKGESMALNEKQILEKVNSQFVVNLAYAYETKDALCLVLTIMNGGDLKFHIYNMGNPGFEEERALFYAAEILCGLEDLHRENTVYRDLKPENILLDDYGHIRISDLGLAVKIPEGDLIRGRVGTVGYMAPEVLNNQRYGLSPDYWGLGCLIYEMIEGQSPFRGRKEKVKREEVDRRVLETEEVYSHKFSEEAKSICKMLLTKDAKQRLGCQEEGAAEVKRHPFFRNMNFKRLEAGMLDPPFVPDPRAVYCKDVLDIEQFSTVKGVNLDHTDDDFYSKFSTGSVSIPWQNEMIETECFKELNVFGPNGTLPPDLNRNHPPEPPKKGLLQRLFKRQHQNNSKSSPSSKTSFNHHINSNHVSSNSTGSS

Take `COc1ccc([C@@H](C)NC(=O)/C(C#N)=C/c2c[nH]c3ncc(O)cc23)cc1OC` [Example 81, (R,E)-2-cyano-N-(1-(3,4-dimethoxyphenyl)ethyl)-3-(5-hydroxy-1H-pyrrolo[2,3-b]pyridin-3-yl)acrylamide]: the IC50 at GRK5 was at most 50 nM; at GRK2 it was 1000 to 10000 nM.
`CC[S+]([O-])c1cccc(-c2cnc3[nH]cc(/C=C/C(=O)N[C@H](C)c4ccc(OC)c(OC)c4)c3c2)c1` (stereo partly drawn) [Example 191, (E)-N-((R)-1-(3,4-dimethoxyphenyl)ethyl)-3-(5-(3-(ethylsulfinyl)phenyl)-1H-pyrrolo[2,3-b]pyridin-3-yl)acrylamide]: the IC50 on GRK5 is at most 50 nM; at GRK2, 1000 to 10000 nM.
In the same order, the values of `COc1cc([C@@H](C)NC(=O)/C=C/c2c[nH]c3ncc(C)cc23)ccc1F` [Example 54, (R,E)-N-(1-(4-fluoro-3-methoxyphenyl)ethyl)-3-(5-methyl-1H-pyrrolo[2,3-b]pyridin-3-yl)acrylamide] are at most 50 nM and at most 50 nM.
Taken in the same sequence, the figures for `COc1ccc([C@@H](C)NC(=O)/C=C/c2c[nH]c3nccc(-c4ccc(N5CCN(C(C)=O)CC5)cc4)c23)cc1OC` [Example 235, (R,E)-3-(4-(4-(4-acetylpiperazin-1-yl)phenyl)-1H-pyrrolo[2,3-b]pyridin-3-yl)-N-(1-(3,4-dimethoxyphenyl)ethyl)acrylamide] were 50 to 100 nM and over 10000 nM.
In the same order, the values of `N#C/C(=C\c1c[nH]c2ncccc12)C(=O)N[C@H](CCO)c1ccccc1` [Example 40, (R,E)-2-cyano-N-(3-hydroxy-1-phenylpropyl)-3-(1H-pyrrolo[2,3-b]pyridin-3-yl)acrylamide] are 100 to 500 nM and 100 to 500 nM.
Regarding `COc1ccc([C@@H](C)NC(=O)/C(C#N)=C/c2c[nH]c3ncc(C#N)cc23)cc1OC` [Example 86, (R,E)-2-cyano-3-(5-cyano-1H-pyrrolo[2,3-b]pyridin-3-yl)-N-(1-(3,4-dimethoxyphenyl)ethyl)acrylamide], the IC50 on GRK5 is 100 to 500 nM; on GRK2, over 10000 nM.
Taken in the same sequence, the figures for `COc1ccc([C@@H](C)NC(=O)/C=C/c2c[nH]c3ncc(-c4ccc(F)c(S(C)(=O)=O)c4)cc23)cc1OC` [Example 220, (R,E)-N-(1-(3,4-dimethoxyphenyl)ethyl)-3-(5-(4-fluoro-3-(methylsulfonyl)phenyl)-1H-pyrrolo[2,3-b]pyridin-3-yl)acrylamide] were at most 50 nM and 1000 to 10000 nM.
Taken in the same sequence, the figures for `COc1ccc([C@@H](C)NC(=O)/C=C/c2c[nH]c3ncc(OCCN(C)C)cc23)cc1OC` [Example 56, (R,E)-N-(1-(3,4-dimethoxyphenyl)ethyl)-3-(5-(2-(dimethylamino)ethoxy)-1H-pyrrolo[2,3-b]pyridin-3-yl)acrylamide] were 50 to 100 nM and over 10000 nM.
In the same order, the values of `COc1ccc([C@@H](C)NC(=O)/C(C#N)=C/c2c[nH]c3ncc(-c4cccc5cnn(C)c45)cc23)cc1OC` [Example 150] are 500 to 1000 nM and over 10000 nM.
Regarding `C[C@@H](NC(=O)/C=C/c1c[nH]c2ncc(-c3cnn(C)c3)cc12)c1ccc(F)c(F)c1` [Example 257, (R,E)-N-(1-(3,4-difluorophenyl)ethyl)-3-(5-(1-methyl-1H-pyrazol-4-yl)-1H-pyrrolo[2,3-b]pyridin-3-yl)acrylamide], the results for the IC50 at GRK5 and at GRK2 were at most 50 nM and 100 to 500 nM, respectively.
In the case of `C[C@@H](NC(=O)/C(C#N)=C/c1c[nH]c2ncccc12)c1cccc(C(F)(F)F)c1` [Example 18, (R,E)-2-cyano-3-(1H-pyrrolo[2,3-b]pyridin-3-yl)-N-(1-(3-(trifluoromethyl)phenyl)ethyl)acrylamide], the IC50 at GRK5 was 100 to 500 nM; at GRK2, 500 to 1000 nM.
On to `COc1ccc([C@@H](C)NC(=O)/C=C/c2c[nH]c3ncc(-c4ccc(C(N)=O)cc4)cc23)cc1OC` [Example 200, (R,E)-4-(3-(3-((1-(3,4-dimethoxyphenyl)ethyl)amino)-3-oxoprop-1-en-1-yl)-1H-pyrrolo[2,3-b]pyridin-5-yl)benzamide], for which the IC50 at GRK5 was at most 50 nM; on GRK2 it was 1000 to 10000 nM.
Regarding `COc1ccc([C@@H](C)NC(=O)/C(C#N)=C/c2c[nH]c3ncc(-c4ccc(N5CCN(C)CC5)cc4)c(C)c23)cc1OC` [Example 244, (R,E)-2-cyano-N-(1-(3,4-dimethoxyphenyl)ethyl)-3-(4-methyl-5-(4-(4-methylpiperazin-1-yl)phenyl)-1H-pyrrolo[2,3-b]pyridin-3-yl)acrylamide], the IC50 on GRK5 was 500 to 1000 nM; at GRK2 it was 1000 to 10000 nM.
Consider `COc1ccc([C@@H](CO)NC(=O)/C=C/c2c[nH]c3ncc(C)cc23)cc1OC` [Example 53, (S,E)-N-(1-(3,4-dimethoxyphenyl)-2-hydroxyethyl)-3-(5-methyl-1H-pyrrolo[2,3-b]pyridin-3-yl)acrylamide], for which the IC50 on GRK5 is at most 50 nM; at GRK2, 1000 to 10000 nM.
In the case of `CN(C)c1cccc(CNC(=O)/C(C#N)=C/c2c[nH]c3ncccc23)c1` [Example 30, (E)-2-cyano-N-(3-(dimethylamino)benzyl)-3-(1H-pyrrolo[2,3-b]pyridin-3-yl)acrylamide], the IC50 was 1000 to 10000 nM on GRK5 and over 10000 nM on GRK2.
As to `COc1ccc([C@@H](C)NC(=O)/C(C#N)=C/c2c[nH]c3ncc(-c4ccc(OCCN(C)C)cc4)cc23)cc1OC` [Example 154], the IC50 is at most 50 nM on GRK5 and 500 to 1000 nM on GRK2.
Take `COc1ccc([C@@H](C)NC(=O)/C=C/c2c[nH]c3ncc(-c4cc(F)cc(S(C)(=O)=O)c4)cc23)cc1OC` [Example 249, (R,E)-N-(1-(3,4-dimethoxyphenyl)ethyl)-3-(5-(3-fluoro-5-(methylsulfonyl)phenyl)-1H-pyrrolo[2,3-b]pyridin-3-yl)acrylamide]: the results for the IC50 on GRK5 and at GRK2 were at most 50 nM and 1000 to 10000 nM, respectively.
In the case of `COc1ccc([C@@H](C)NC(=O)/C=C/c2c[nH]c3ncc(-c4cccc(N5CCN(C)CC5)c4)cc23)cc1OC` [Example 185], the IC50 at GRK5 is at most 50 nM; at GRK2, 1000 to 10000 nM.
Taken in the same sequence, the figures for `COc1ccc([C@@H](C)NC(=O)/C=C/c2c[nH]c3ncc(-c4cccc(CNC(C)=O)c4)cc23)cc1OC` [Example 203, (R,E)-3-(5-(3-(acetamidomethyl)phenyl)-1H-pyrrolo[2,3-b]pyridin-3-yl)-N-(1-(3,4-dimethoxyphenyl)ethyl)acrylamide] were at most 50 nM and 1000 to 10000 nM.
As to `COc1ccc(-c2cnc3[nH]cc(/C=C(\C#N)C(=O)N[C@H](C)c4ccc(OC)c(OC)c4)c3c2)cc1OC` [Example 145], the IC50 on GRK5 is at most 50 nM; at GRK2, over 10000 nM.
`COc1ccc([C@@H](C)NC(=O)/C=C/c2c[nH]c3nccc(-c4cccc(CNC(C)=O)c4)c23)cc1OC` [Example 243, (R,E)-3-(4-(3-(acetamidomethyl)phenyl)-1H-pyrrolo[2,3-b]pyridin-3-yl)-N-(1-(3,4-dimethoxyphenyl)ethyl)acrylamide]: the IC50 is 100 to 500 nM at GRK5 and over 10000 nM on GRK2.
In the same order, the values of `N#C/C(=C\c1c[nH]c2ncccc12)C(=O)NCc1ccc(C(F)(F)F)cc1` [Example 59, (E)-2-cyano-3-(1H-pyrrolo[2,3-b]pyridin-3-yl)-N-(4-(trifluoromethyl)benzyl)acrylamide] are 1000 to 10000 nM and 1000 to 10000 nM.
